Columns and labels:
[1] = tested on: E. coli Neumann; experiment: Minimum inhibitory concentration (MHK); type: cell-based
[2] = tested on: Serratia 16 001; experiment: Minimum inhibitory concentration (MHK); type: cell-based
[3] = tested on: Klebs. 63; experiment: Minimum inhibitory concentration (MHK); type: cell-based
[4] = tested on: Escherichia coli Neumann; experiment: Animal test with the white mouse, intraperitoneal infection, ED50 after 24 hours; type: in vivo, weiße Maus; details: sc; white mice strain CF1 infected intraperitoneally with Escherichia coli Neumann; subcutaneous; therapy 30 and 90 minutes after infection; dose at which 50 % of infected animals survive after 24 hours; read-out: ED50 nach 24 Stunden
Description: Aus der folgenden Tabelle 1 geht die Wirkung einer der erfindungsgemäßen Verbindungen gegen eine Reihe von Bakterien im Tierversuch mit der weißen Maus hervor. Die weißen Mäuse vom Stamm CF1 wurden intraperitoneal mit der jeweils angegebenen Bakterienart infiziert.
Therapie: zweimalig : 30 und 90 Minuten nach der Infektion. Die ED50 ist die Dosis, bei der 50 % der infizierten Tiere nach 24 Stunden nocht überleben.

[5] = tested on: E.coli 183/58; experiment: Minimum inhibitory concentration (MHK); type: cell-based
[6] = tested on: Klebsiella 6097; experiment: Minimum inhibitory concentration (MHK); type: cell-based
[7] = tested on: Proteus rettg.; experiment: Minimum inhibitory concentration (MHK); type: cell-based
[8] = tested on: Provid. 12012; experiment: Minimum inhibitory concentration (MHK); type: cell-based
[9] = tested on: Psdm. F 41; experiment: Minimum inhibitory concentration (MHK); type: cell-based
[10] = tested on: E. coli 4322; experiment: Minimum inhibitory concentration (MHK); type: cell-based
[11] = tested on: E. coli C 165; experiment: Minimum inhibitory concentration (MHK); type: cell-based
[12] = tested on: Prot. vulg. 9023; experiment: Minimum inhibitory concentration (MHK); type: cell-based

## CC1(C)S[C@@H]2[C@H](NC(=O)[C@H](NC(=O)N3CCC(=O)N(C4CC4)C3=O)c3ccccc3)C(=O)N2[C@H]1C(=O)O [Beispiel 9]
[1]
  Wirksamkeit (MHK in E/ml): 4 E/ml
[2]
  Wirksamkeit (MHK in E/ml): 16 E/ml
[3]
  Wirksamkeit (MHK in E/ml): 8 - 16 E/ml
[4]
  ED50: 300 mg/kg

## CCCN1C(=O)CCN(C(=O)N[C@@H](C(=O)N[C@@H]2C(=O)N3[C@@H]2SC(C)(C)[C@@H]3C(=O)O)c2ccccc2)C1=O [Beispiel 6]
[5]
  Wirksamkeit (MHK in E/ml): 4 E/ml
[6]
  Wirksamkeit (MHK in E/ml): 16 E/ml

## CC(=O)OCC1=C(C(=O)O)N2C(=O)[C@@H](NC(=O)[C@H](NC(=O)N3CCC(=O)N(C)C3=O)c3ccccc3)[C@H]2SC1 [Beispiel 3]
[1]
  Wirksamkeit (MHK in E/ml): 8-16 E/ml

## CCN1C(=O)CCN(C(=O)N[C@@H](C(=O)N[C@@H]2C(=O)N3[C@@H]2SC(C)(C)[C@@H]3C(=O)O)c2ccccc2)C1=O [Beispiel 4]
[7]
  Wirksamkeit (MHK in E/ml): 16 E/ml
[1]
  Wirksamkeit (MHK in E/ml): 4 E/ml
[8]
  Wirksamkeit (MHK in E/ml): 16 E/ml
[6]
  Wirksamkeit (MHK in E/ml): 16 E/ml

## CC1(C)S[C@@H]2[C@H](NC(=O)[C@H](NC(=O)N3CCC(=O)N(C4CC4)C3=O)c3ccc(O)cc3)C(=O)N2[C@H]1C(=O)O [Beispiel 10]
[9]
  Wirksamkeit (MHK in E/ml): 64 E/ml
[10]
  Wirksamkeit (MHK in E/ml): 16 E/ml

## CCN1C(=O)CCN(C(=O)N[C@@H](C(=O)N[C@@H]2C(=O)N3[C@@H]2SC(C)(C)[C@@H]3C(=O)O)c2ccc(O)cc2)C1=O [Beispiel 5]
[11]
  Wirksamkeit (MHK in E/ml): 16 E/ml
[12]
  Wirksamkeit (MHK in E/ml): 16 E/ml

## CCCN1C(=O)CCN(C(=O)N[C@@H](C(=O)N[C@@H]2C(=O)N3C(C(=O)O)=C(COC(C)=O)CS[C@H]23)c2ccccc2)C1=O [Beispiel 8]
[1]
  Wirksamkeit (MHK in E/ml): 4 E/ml
[12]
  Wirksamkeit (MHK in E/ml): 8 - 16 E/ml

## CN1C(=O)CCN(C(=O)N[C@@H](C(=O)N[C@@H]2C(=O)N3[C@@H]2SC(C)(C)[C@@H]3C(=O)O)c2ccccc2)C1=O [Beispiel 1]
[1]
  Wirksamkeit (MHK in E/ml): 4 E/ml

## CC(=O)OCC1=C(C(=O)O)N2C(=O)[C@@H](NC(=O)[C@H](NC(=O)N3CCC(=O)N(C4CC4)C3=O)c3ccccc3)[C@H]2SC1 [Beispiel 11]
[5]
  Wirksamkeit (MHK in E/ml): 16 E/ml

## CN1C(=O)CCN(C(=O)N[C@@H](C(=O)N[C@@H]2C(=O)N3[C@@H]2SC(C)(C)[C@@H]3C(=O)O)c2ccc(O)cc2)C1=O [Beispiel 2]
[2]
  Wirksamkeit (MHK in E/ml): 16 E/ml

Source: patent EP0004590A1, “Penicillin and cephalosporin derivatives, processes for their preparation and their applications” (BAYER AG, priority 1978, dated 1979)
